Results from PMC3485629, “Bioactivity comparison of extracts from various parts of common and tartary buckwheats: evaluation of the antioxidant- and angiotensin-converting enzyme inhibitory activities” (Chemistry Central Journal, 2012).

Target: T1, Angiotensin-converting enzymes from porcine kidneys (EC 3.4.15.1) (Sus scrofa, UniProt F1RRW5)
T1 construct: gene ACE; native enzyme from porcine kidney (Sigma), lyophilized
T1 sequence (F1RRW5 34-1309): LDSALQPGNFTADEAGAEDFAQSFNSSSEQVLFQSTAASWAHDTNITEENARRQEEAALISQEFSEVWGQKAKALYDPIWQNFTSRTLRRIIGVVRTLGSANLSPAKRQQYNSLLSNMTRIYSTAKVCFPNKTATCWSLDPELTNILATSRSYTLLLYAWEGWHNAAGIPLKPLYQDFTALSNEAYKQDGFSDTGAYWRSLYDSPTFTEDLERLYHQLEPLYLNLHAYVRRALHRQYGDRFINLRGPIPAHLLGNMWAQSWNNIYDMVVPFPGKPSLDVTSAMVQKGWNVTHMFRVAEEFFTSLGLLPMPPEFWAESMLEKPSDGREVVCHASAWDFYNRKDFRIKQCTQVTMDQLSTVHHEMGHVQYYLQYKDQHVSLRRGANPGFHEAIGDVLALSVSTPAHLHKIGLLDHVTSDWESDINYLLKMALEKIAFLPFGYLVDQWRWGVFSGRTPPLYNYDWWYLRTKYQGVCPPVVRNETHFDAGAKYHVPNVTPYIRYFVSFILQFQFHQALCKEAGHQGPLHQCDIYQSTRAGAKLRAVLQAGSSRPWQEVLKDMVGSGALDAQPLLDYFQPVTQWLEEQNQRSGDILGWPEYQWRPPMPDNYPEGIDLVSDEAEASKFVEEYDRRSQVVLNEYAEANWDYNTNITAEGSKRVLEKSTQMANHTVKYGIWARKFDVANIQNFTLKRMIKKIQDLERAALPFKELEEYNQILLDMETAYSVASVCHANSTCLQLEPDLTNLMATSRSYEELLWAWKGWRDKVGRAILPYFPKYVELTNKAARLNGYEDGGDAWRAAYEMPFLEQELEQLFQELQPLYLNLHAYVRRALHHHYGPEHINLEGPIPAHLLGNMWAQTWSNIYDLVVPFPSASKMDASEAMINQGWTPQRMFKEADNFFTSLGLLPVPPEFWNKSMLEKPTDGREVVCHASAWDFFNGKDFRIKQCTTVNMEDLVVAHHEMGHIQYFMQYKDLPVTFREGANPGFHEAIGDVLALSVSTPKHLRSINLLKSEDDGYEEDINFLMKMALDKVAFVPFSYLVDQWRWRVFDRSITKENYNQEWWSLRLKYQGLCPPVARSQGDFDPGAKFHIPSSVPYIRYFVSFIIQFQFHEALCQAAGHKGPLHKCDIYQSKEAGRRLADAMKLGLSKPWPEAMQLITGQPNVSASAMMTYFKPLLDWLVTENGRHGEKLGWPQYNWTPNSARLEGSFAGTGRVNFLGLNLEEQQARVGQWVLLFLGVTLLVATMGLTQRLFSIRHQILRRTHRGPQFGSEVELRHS
Test: microplate fluorometric assay, OPA detection of His-Leu
Type: biochemical
Conditions: read-out: IC50 (μg mL^-1) (converted)

- IC50: 129 µM
SMILES: O=c1c(O)c(-c2ccc(O)c(O)c2)oc2cc(O)cc(O)c12 [quercetin]
